Where two headings read alike, the source gives them in different places. Ends that are not written are not given here.
How the values were obtained:
S. aureus ATCC 25923 = assay type: cell-based, Staphylococcus aureus
sheep erythrocytes = test: Hemolysis assay; assay type: cell-based; settings: for hemolytic activity, in words: 6.25 to 50 µg/mL, sheep erythrocytes, 37 °C, 1 h
Procedure: Hemolytic activity of peptides was assessed as described by Dong et al., with some modifications. Fresh defibrinated sheep blood was obtained from the Institute of Virology, Vaccines and Sera “Torlak” (Belgrade, Serbia). Erythrocytes were washed three times with sterile Tris-buffered saline (TBS, 10 mM TRIS-HCl, pH 7.4, 150 mM NaCl) by centrifugation at 800× g for 5 min and resuspended to a final 2% (v/v) erythrocyte suspension in TBS.
Peptide solutions (0.02 M HCl) were diluted in Tris-buffered saline (TBS, 10 mM TRIS-HCl, pH 7.4, 150 mM NaCl) to final concentrations ranging from 6.25 to 50 µg/mL. In a 96-well flat-bottom plate, 100 µL of peptide solution was mixed with 100 µL of erythrocyte suspension and incubated at 37 °C for 1 h.
After incubation, the plates were centrifuged at 1000× g for 5 min, and 100 µL of the supernatant was transferred to a flat-bottom 96-well plate. Absorbance was measured at 540 nm using a microplate reader (model BioTek Epoch Microplate Spectrophotometer; Agilent Technologies, Winooski, VT, USA).
Hemolysis (%) was calculated relative to a negative control (TBS; 0% lysis) and a positive control (0.1% SDS; 100% lysis) using the formula: Hemolysis (%)=Asample−ATBS/ASDS−ATBS×100
The assay was performed in triplicate.

hla = settings: half MIC, 16–18 h, 37 °C, normalised to gmk, duplicate
lukSPV = test: Virulence gene expression, RT-qPCR; assay type: cell-based, S. aureus ATCC 25923; settings: half MIC, 16–18 h, 37 °C, normalised to gmk, duplicate
Procedure: (§1) Untreated bacterial cultures in corresponding media served as controls.
(§2) All experiments were performed in duplicate.

icaR = test: Virulence gene expression, RT-qPCR; assay type: cell-based, S. aureus ATCC 25923; settings: half MIC, 16–18 h, 37 °C, normalised to gmk, duplicate
Procedure: as §1, §2

With “MWGRILGTVAKYAPKAVSWAWQHKWELINMGDLAFRYIQRIWG [Peptide G13A]” the MBC (S. aureus ATCC 25923) was 12.5 mg/L, the “hemolytic activity, in words” value (sheep erythrocytes) was “dose-dependent hemolysis” and the “Hemolytic activity (%) at 25 µg/mL” value (sheep erythrocytes; pH 7.4) was 22.69%. The “Hemolytic activity (%) at 50 µg/mL” value (sheep erythrocytes; pH 7.4) was 28.86%, the “hla expression, log2 fold-change vs untreated control” value (“hla expression, log2 fold-change” below) (hla; FBS) was 1.04 log2 fold change and the “hla expression, log2 fold-change” value (hla; LB medium) was -0.11 log2 fold change. For the same sequence, the “lukSPV expression, log2 fold-change vs untreated control” value (“lukSPV expression, log2 fold-change” below) (lukSPV; FBS) was 2.49 log2 fold change, the “lukSPV expression, log2 fold-change” value (lukSPV; LB medium) was -2.28 log2 fold change and the “icaR expression, log2 fold-change vs untreated control” value (shortened to “icaR expression, log2 fold-change”) (icaR; FBS) was 2.66 log2 fold change. The “icaR expression, log2 fold-change” value (icaR; LB medium) was 0.36 log2 fold change.

“MWARILGTVAKYGPKAVSWAWQHKWELINMGDLAFRYIQRIWG [Peptide G3A]” was tested, and the MBC (S. aureus ATCC 25923) was 25 mg/L, the “hemolytic activity, in words” value (sheep erythrocytes) was “no measurable hemolysis up to 25 µg/mL” and the “hla expression, log2 fold-change” value (hla; FBS) was -0.30 log2 fold change. The “hla expression, log2 fold-change” value (hla; LB medium) was 0.60 log2 fold change, the “lukSPV expression, log2 fold-change” value (lukSPV; FBS) was -1.54 log2 fold change and the “lukSPV expression, log2 fold-change” value (lukSPV; LB medium) was 1.77 log2 fold change. The “icaR expression, log2 fold-change” value (icaR; FBS) was -1.43 log2 fold change and the “icaR expression, log2 fold-change” value (icaR; LB medium) was 0.06 log2 fold change.

“MWGRILATVAKYGPKAVSWAWQHKWELINMGDLAFRYIQRIWG [Peptide G7A]” was tested, and the MBC (S. aureus ATCC 25923) was 25 mg/L, the “hemolytic activity, in words” value (sheep erythrocytes) was “some membrane-disruptive potential at elevated concentrations (50 µg/mL)” and the “hla expression, log2 fold-change” value (hla; FBS) was 0.51 log2 fold change. For the same sequence, the “hla expression, log2 fold-change” value (hla; LB medium) was -0.62 log2 fold change, the “lukSPV expression, log2 fold-change” value (lukSPV; FBS) was 1.22 log2 fold change and the “lukSPV expression, log2 fold-change” value (lukSPV; LB medium) was -2.88 log2 fold change. The “icaR expression, log2 fold-change” value (icaR; FBS) was 1.71 log2 fold change and the “icaR expression, log2 fold-change” value (icaR; LB medium) was 0.10 log2 fold change.

— article PMC12348470, “Amino Acid Substitutions in Bacteriocin Lactolisterin BU Reveal Functional Domains Involved in Biological Activity Against Staphylococcus aureus” (Molecules, 2025)
